The text below walks through data of patent publication US20060229255A1, “Identification of n-alkylglycine trimers for induction of apoptosis” (priority 2003, published 2006).

Assay [1] has as its system HT29 human colon adenocarcinoma cells. Description: Cellular proliferation assay (MTT). In kind it is cell-based. To be noted: for IC50: HT29, MTT assay after 72 h, read-out: IC50 proliferation inhibition; for Anti-proliferative effect in combination with serial dilutions of Taxol versus Taxol alone: HT29, compound at its IC50, 72 h; for Effect of Taxol on the compound's proliferation inhibition: HT29, with low dose of Taxol (11 nM), 72 h. The text has this: For screening of the peptoid library containing 10.648 compounds, controlled mixtures of trimers of N-alkylglycine oligomer molecules (peptoid) have been used and constructed under […] positional scanning formats. Chemical diversity was introduced through the substitution of position R1, R2 and R3 by 22 different primary amines. 66 controlled mixtures divided into three different subgroups depending on the R1, R2, R3 defined position. The library was screened on a cellular proliferation assay with HT29 human colon adenocarcinoma cells. The compounds were tested either alone or together with a low dose of Taxol (11 nM). After 72 h in culture, cellular viability was measured with the MTT assay.
Cellular Assays. Combinatorial libraries were screened on a cellular proliferation assay with HT29 human colon adenocarcinoma cells. The compounds were tested either alone or together with low doses of Taxol (nM). After 3 days in culture, cellular viability was measured with an MTT assay (3-4,5-Dimethyl-2-thiazolyl-2,5-diphenyl-2H-tetrazolium bromide). MTT was added at a final concentration of 1 mg/ml in the cell cultures, and after 4 h incubation at 37° C. cell lysis was performed with 15% SDS/DMF (v/v). Spectrophotometric measurement of MTT-formazan at 570 nm and a reference filter at 630 nm allows quantitation of cellular viability. Proliferation inhibition due to the compounds alone was compared to inhibition observed in Taxol plus compound treated cultures.
FIG. 1. Compounds N10-13-10C, N13-13-10C, N4-13-10C and N5-13-10C inhibit HT29 proliferation. Taxol interferes the effect of N10-13-10C and N13-13-10C. (A, B) HT29 cells were grown with peptoid at several concentrations with or without Taxol (11 nM). MTT assay was performed after 72 h of treatment. Proliferation inhibition is shown for N4-13-10C and N13-13-10C (A.), N5-13-10C and N10-13-10C (B.) compared to proliferation of control cells. IC50 value is specified for each peptoid. N10-13-10C and N13-13-10C were purified peptoids by HPLC, corresponding to the major and active fraction. N4-13-10C and N5-13-10C peptoids were not purified by HPLC. […] Proliferation was evaluated by MTT assay after 72 h of treatment. An arbitrary value of 100% was assigned to the densiometric rate of untreated cultures and all other values are depicted relative to that reference. The values are means of six (n=6) replicates.

Another assay relates to T98 g cells. The assay is described as follows: Cell cycle DNA analysis in synchronized cells. In kind it is cell-based, human. As to conditions: 19 h after serum re-addition, 100 μM. The procedure: Experimentally this finding was substantiated analysing the compounds in a cellular model with synchronized cells. T98 g cells were arrested in G1 phase (82%) by serum starvation in MCDB 105 medium after 72 h. Upon 10% serum re-addition, cells were allowed to re-enter into the cell cycle. More than 50% of the cells were in the S-phase, and only 20% remained in G1 after 19 h of FCS introduction. Addition of N10-13-10C or N13-13-10C to the cultures at the moment of serum addition restrained S-phase entry (FIG. 7. A). Around 40% of the cells were retained in G1. In conclusions both N10-13-10C and N13-13-10C were able to induce a G1 arrest either in asynchronous or in synchronized cell cultures, as determined by cell cycle DNA analysis. In comparison, Olomucine which is a cdk2 inhibitor, retained 80% of the cells in G1. The topoisomerase II inhibitor etoposide treated cells were arrested in S phase of the cell cycle (85% of the cell population).
DNA analysis. Floating and adherent cells treated with the compounds were collected by trypsinization and washed twice with PBS. The cells were permeabilized overnight at −20° C. with ice-cold ethanol 70%. The cells were washed in PBS, adjusted at 0.5×10^6 cells/ml and incubated with 20 μg/ml Propidium Iodide and 2 μl/ml RNase DNase-free for 30 min at 30° C. Cells were maintained overnight at 4° C. and then analysed by flow cytometry. Flow cytometric experiments were carried out using an Epics XL flow cytometer (Coulter Corporation, Hialeah, Fla.). The instrumet was set up with the standard configuration: excitation of the sample was done using an standard 488 nm air-cooled argon-ion laser at 15 mW power. Forward scatter (FSC), side scatter (SSC) and red (620 nm) fluorescence for PI were adquired. Optical alignement was based on optimized signal from […] fluorescent beads (Immunocheck, Epics Division). Time was used as a control of the stability of the instrument. Red fluorescence was projected on a 1024 monoparametrical histogram. Aggregates were excluded gating single cells by their area vs. peak fluorescence signal. DNA analysis (Ploidy analysis) on single fluorescence histograms was done using Multicycle software (Phoenix Flow Systems, San Diego, Calif.).
(§1) FIG. 7. […] (A) T98 g cells were synchronized and reinitiated for 19 h with FCS alone or in combination with N10-13-10C (100 μM), N13-13-10C (100 μM), Olomucine (100 μM), etoposide (5 μM) or Taxol (30 nM). Cell cycle profile was assessed by propidium iodide DNA staining and analyzed by flow cytometry. The fraction of cells with G1, S, G2/M DNA content are shown as % of total cell population. (B. and C.) Synchronized T98 g cells were reinitiated with FCS alone or in combination with serial dilutions of N4-13-10C, N5-13-10C, N10-13-10C, N13-13-10C, Olomucine or etoposide for 19 h and labeled with BrdU during the last 2 h. BrdU incorporation was assessed by ELISA using anti-BrdU antibodies. An arbitrary value of 100% was assigned to the densiometric rate of DNA synthesis by untreated cultures and all other values are depicted relative to that reference. The values are means of three (n=3) replicates.

The subject of another assay is T98g glioblastoma cells. Description: BrdU incorporation assay (DNA synthesis). As to conditions: synchronized T98 g, 17 h + 2 h BrdU; read-out: IC50 BrdU incorporation (DNA synthesis inhibition). In kind it is cell-based, human. The procedure:
To confirm the G1 arrest of the cell cycle, we analyzed the DNA synthesis by an BrdU incorporation assay. Serial dilutions of the compounds N4-13-10C, N5-13-10C, N10-13-10C, N13-13-10C, etoposide or olomucine were assayed on synchronized T98 g cells as described in FIG. 7. A. Arrested cells were induced to cell cycle re-entry by re-addition of serum alone or with test compounds for 17 h, followed by 2 h in combination with 10 μM BrdU.
BrdU assay. T98g glioblastoma cells at 5000 cells/well in microtiter plates were arrested in G1-phase for 72 h by serum deprivation in MCDB 105 medium. By serum (10%) readdition, cells were treated with serial dilutions of the compounds for 17 h, and followed in combination 10 μM BrdU for […]. BrdU incorporation, i.e. DNA synthesis, was quantified with Cell Proliferation ELISA system, vs. 2 (AmershamPharmacia biotech) as described by the manufacturer.
as §1

In the case of `COc1ccc(CCN(CC(=O)N(CCc2ccccc2)CC(N)=O)C(=O)CNCCc2ccccc2)cc1` [N10-13-10C], in assay [1], the IC50 was determined as 40 µM, the “Anti-proliferative effect in combination with serial dilutions of Taxol versus Taxol alone” value is “potentated anti-proliferative effect” and the “Effect of Taxol on the compound's proliferation inhibition” value is given as “Taxol prevented the compound's effect”. Also, in the assay with T98 g cells, the “Cells retained in G1” value is reported as “Around 40%”. The IC50 in the assay on T98g glioblastoma cells was 100 µM.
Regarding `COc1ccc(CCNCC(=O)N(CCc2ccc(OC)cc2)CC(=O)N(CCc2ccccc2)CC(N)=O)cc1` [N13-13-10C], in assay [1], the IC50 is 35 µM, the “Anti-proliferative effect in combination with serial dilutions of Taxol versus Taxol alone” value was “potentated anti-proliferative effect” and the “Effect of Taxol on the compound's proliferation inhibition” value is “Taxol prevented the compound's effect”. The “Cells retained in G1” value in the assay with T98 g cells is “Around 40%”. Further, the IC50 with T98g glioblastoma cells is 150 µM.
